From BindingDB's records for doi:10.1016/j.bmcl.2011.06.070 (Novartis Institutes For Biomedical Research, 2011) come the findings set out here.

For orientation: IC50 means the midpoint of a concentration-inhibition curve.

The nature of this test: Antagonist activity at CXCR3 in rat leukocytes assessed as inhibition of ITAC-induced cell migration by flow cytometry. In general terms: In flow cytometry, cells or beads pass a laser one at a time.
Consider `O=C([C@@H]1C=C2c3cccc4[nH]cc(c34)C[C@H]2N(C(=O)Nc2ccccc2)C1)N1CCOCC1`, for which the half-inhibitory concentration (IC50) worked out at 78 nM.
In the case of `O=C([C@@H]1C=C2c3cccc4[nH]cc(c34)C[C@H]2N(C(=O)Nc2ccccc2)C1)N1CCCC1`, the IC50 came to 19 nM.
For `O=C([C@@H]1C=C2c3cccc4[nH]cc(c34)C[C@H]2N(C(=O)Nc2ccccc2)C1)N1CCCCC1`, the 50% inhibitory concentration (IC50) was 13 nM.
On to `CCN(CC)C(=O)[C@@H]1C=C2c3cccc4[nH]cc(c34)C[C@H]2N(C(=O)Nc2ccccc2)C1` [(6aR,9R)-N9,N9-diethyl-N7-phenyl-6,6a,8,9-tetrahydroindolo[4,3-fg]quinoline-7,9(4H)-dicarboxamide], for which the IC50 was found to be 74 nM.
